The test system of this test is influenza A/Singapore/1/57 virus. The test is described as follows: microbe, parasite or virus in culture. It is filed as cell-based.

Several values for one entry are separate records, joined by “and”; a condition that tells them apart may be missing. Equal values may be shown once.

Turning to “1-methyl-2-(4-oxyethyl-phenylsulfomethyl)-3-carbethoxy-4-dimethylaminomethyl-5-oxy-6-bromindol”, the “Percent of inhibition of OD 490” value reads like this: (A or C 0.3 μg/ml + Oseltamivir 0.4 μg, added 2 hours after infection) 15%; (A or C 0.3 μg/ml + Oseltamivir 1.2 μg, added 2 hours after infection) 16%; (A or C 0.3 μg/ml + Oseltamivir 4.1 μg, added 2 hours after infection) 18%; (A or C 0.3 μg/ml + Oseltamivir 12.3 μg, added 2 hours after infection) 35%; (A or C 0.3 μg/ml + Oseltamivir 41 μg, added 2 hours after infection) 40%; (A or C 0.3 μg/ml alone (Oseltamivir 0), added 2 hours after infection) “no”. For the same compound, the “Percent of inhibition of OD 490” value (A or C 1 μg/ml + Oseltamivir 0.4 μg, added 2 hours after infection) came to 30%; the “Percent of inhibition of OD 490” value (A or C 1 μg/ml + Oseltamivir 1.2 μg, added 2 hours after infection) is on record as 31%; the “Percent of inhibition of OD 490” value (A or C 1 μg/ml + Oseltamivir 4.1 μg, added 2 hours after infection) was 41%; the “Percent of inhibition of OD 490” value (A or C 1 μg/ml + Oseltamivir 12.3 μg, added 2 hours after infection) is reported as 88%; the “Percent of inhibition of OD 490” value (A or C 1 μg/ml + Oseltamivir 41 μg, added 2 hours after infection) is 90%; the “Percent of inhibition of OD 490” value (A or C 1 μg/ml alone (Oseltamivir 0), added 2 hours after infection) is reported as “no”. Also, the “Percent of inhibition of OD 490” value by setting is: (A or C 3 μg/ml + Oseltamivir 0.4 μg, added 2 hours after infection) 35%; (A or C 3 μg/ml + Oseltamivir 1.2 μg, added 2 hours after infection) 37%; (A or C 3 μg/ml + Oseltamivir 4.1 μg, added 2 hours after infection) 60%; (A or C 3 μg/ml + Oseltamivir 12.3 μg, added 2 hours after infection) 91%; (A or C 3 μg/ml + Oseltamivir 41 μg, added 2 hours after infection) 100, 100%; (A or C 3 μg/ml alone (Oseltamivir 0), added 2 hours after infection) “no”. In addition, the “Percent of inhibition of OD 490” value (A or C 5 μg/ml + Oseltamivir 0.4 μg, added 2 hours after infection) is 50%; the “Percent of inhibition of OD 490” value (A or C 5 μg/ml + Oseltamivir 1.2 μg, added 2 hours after infection) came to 40%; the “Percent of inhibition of OD 490” value (A or C 5 μg/ml + Oseltamivir 4.1 μg, added 2 hours after infection) was 96%; the “Percent of inhibition of OD 490” value (A or C 5 μg/ml + Oseltamivir 12.3 μg, added 2 hours after infection) is 96%; the “Percent of inhibition of OD 490” value (A or C 5 μg/ml + Oseltamivir 41 μg, added 2 hours after infection) was 100, 100%; the “Percent of inhibition of OD 490” value (A or C 5 μg/ml alone (Oseltamivir 0), added 2 hours after infection) is “no”. In addition, the “Percent of inhibition of OD 490” value by setting is: (A or C 10 μg/ml + Oseltamivir 0.4 μg, added 2 hours after infection) 46%; (A or C 10 μg/ml + Oseltamivir 1.2 μg, added 2 hours after infection) 65%; (A or C 10 μg/ml + Oseltamivir 4.1 μg, added 2 hours after infection) 95%; (A or C 10 μg/ml + Oseltamivir 12.3 μg, added 2 hours after infection) 95%; (A or C 10 μg/ml + Oseltamivir 41 μg, added 2 hours after infection) 98%; (A or C 10 μg/ml alone (Oseltamivir 0), added 2 hours after infection) 10%.
In the case of `CC(=O)N[C@H]1[C@H]([C@H](O)[C@H](O)CO)OC(C(=O)O)=C[C@@H]1N=C(N)N` [Zanamivir], the “Percent of inhibition of OD 490” value runs as follows: (Zanamivir 0.3 μg alone (A or B 0 μg/ml), two values: A series, B series, added 2 hours after infection) 27% and 15%; (Zanamivir 1 μg alone (A or B 0 μg/ml), two values: A series, B series, added 2 hours after infection) 29% and 15%; (Zanamivir 3.3 μg alone (A or B 0 μg/ml), two values: A series, B series, added 2 hours after infection) 36% and 20%; (Zanamivir 10 μg alone (A or B 0 μg/ml), two values: A series, B series, added 2 hours after infection) 43% and 22%; (Zanamivir 33 μg alone (A or B 0 μg/ml), two values: A series, B series, added 2 hours after infection) 49% and 28%. For the same compound, the suppression of reproduction (ten times greater amount (than 3.3 mg) of zanamivir or oseltamivir without the addition of arbidol) came out at 50%.
For `CC(N)C12CC3CC(CC(C3)C1)C2` (stereo not shown) [Remantadin], the “Percent of inhibition of OD 490” value is 56% and 41% (Remantadin 5 μg/ml alone (A or D 0 μg/ml), two values: A series, D series, added 30 min prior to infection); 59% and 40% (Remantadin 10 μg/ml alone (A or D 0 μg/ml), two values: A series, D series, added 30 min prior to infection).
As for `NC12CC3CC(CC(C3)C1)C2` [Amantadin], the “Percent of inhibition of OD 490” value is 50% and 30% (Amantadin 5 μg/ml alone (A or D 0 μg/ml), two values: A series, D series, added 30 min prior to infection); 56% and 38% (Amantadin 10 μg/ml alone (A or D 0 μg/ml), two values: A series, D series, added 30 min prior to infection).

Source of the values: patent publication US20090326037A1 (priority 2005, published 2009).
